US9540343B2 (Gilead Sciences, Inc., priority 2011, dated 2017)

Key:
in vitro = details: human, uninfected MT-4 cells, CC50 (nM), same protocol as Test A, CellTiter-Glo
In short: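 Cytoprotection read-out: CellTiter-Glo chemiluminescence after 5 days at 37 °C of HIV-IIIb-infected MT-4 cells (m.o.i. 0.003) with compound in 10-point 3-fold dilutions, quadruplicate, 10% FBS. Cytotoxicity (CC50) measured identically without virus.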

HIV-IIIb = test: Test A: Antiviral assay in MT4 cells; assay type: cell-based, HIV-1; details: Human immunodeficiency virus 1, IIIB, MT4, 120 h, read-out: % inhibition at 2 μM, percent inhibition of virus-induced cell killing, from dose response curve at 2 uM drug; MT-4 cells infected with HIV-IIIb, 5 days, CellTiter-Glo

Compound	CC50 at 5 days (in vitro) [nM]	inhibition at 2 µM (HIV-IIIb) [%]
COc1ccc(-c2cccnc2[C@H](Cc2cc(F)cc(F)c2)NC(=O)Cc2c[nH]c3ccc(O)cc23)cc1 [Example 13G, (S)—N-(2-(3,5-difluorophenyl)-1-(3-(4-methoxyphenyl)pyridin-2-yl)ethyl)-2-(5-hydroxy-1H-indol-3-yl)acetamide]	25600	97
CC(C(=O)N[C@@H](Cc1cc(F)cc(F)c1)c1ncccc1-c1ccc(F)c(C(N)=O)c1)n1nc(C(F)(F)F)cc1C1CC1 (stereo partly drawn) [Example 519, 5-(2-((1S)-1-(2-(5-cyclopropyl-3-(trifluoromethyl)-1H-pyrazol-1-yl)propanamido)-2-(3,5-difluorophenyl)ethyl)pyridin-3-yl)-2-fluorobenzamide]	20300	65
N#Cc1cccc(-c2cccnc2[C@H](Cc2cc(F)cc(F)c2)NC(=O)Cn2ccc3ccccc32)c1 [Example 95C, (S)—N-(1-(3-(3-cyanophenyl)pyridin-2-yl)-2-(3,5-difluorophenyl)ethyl)-2-(1H-indol-1-yl)acetamide]	14600	14
NC(=O)c1cc(-c2cccnc2[C@H](Cc2cc(F)cc(F)c2)NC(=O)Cn2nc(C(F)F)c3c2CC(F)(F)C3)ccc1F [Example 241D, (S)-5-(2-(1-(2-(3-(difluoromethyl)-5,5-difluoro-5,6-dihydrocyclopenta[c]pyrazol-1(4H)-yl)acetamido)-2-(3,5-difluorophenyl)ethyl)pyridin-3-yl)-2-fluorobenzamide]	25400	78
Cc1noc(C)c1-c1cccnc1[C@H](Cc1cc(F)cc(F)c1)NC(=O)Cc1c[nH]c2ccc(F)cc12 [Example 94, N-((1S)-2-(3,5-difluorophenyl)-1-(3-(3,5-dimethylisoxazol-4-yl)pyridin-2-yl)ethyl)-2-(5-fluoro-1H-indol-3-yl)acetamide]	42000	3
Cc1ccc(C)c2c1NC(=O)C2CC(=O)N[C@@H](Cc1cc(F)cc(F)c1)c1ncccc1-c1ccc(F)c(C(N)=O)c1 (stereo partly drawn) [Example 259, 5-(2-((1S)-2-(3,5-difluorophenyl)-1-(2-(4,7-dimethyl-2-oxoindolin-3-yl)acetamido)ethyl)pyridin-3-yl)-2-fluorobenzamide]	47600	2
NC(=O)c1cc(-c2cccnc2[C@H](Cc2cc(F)cc(F)c2)NC(=O)Cn2nc(C(F)(F)F)c3cc(F)ccc32)ccc1F [Example 271B, (S)-5-(2-(2-(3,5-difluorophenyl)-1-(2-(5-fluoro-3-(trifluoromethyl)-1H-indazol-1-yl)acetamido)ethyl)pyridin-3-yl)-2-fluorobenzamide]	11400	15
O=C(Cc1c[nH]c2ccc(F)cc12)N[C@@H](Cc1cc(F)cc(F)c1)c1ncccc1-c1ccc(F)c(F)c1 [Example 406, (S)—N-(2-(3,5-difluorophenyl)-1-(3-(3,4-difluorophenyl)pyridin-2-yl)ethyl)-2-(5-fluoro-1H-indol-3-yl)acetamide]	11400	27
NC(=O)c1cc(-c2cccnc2[C@H](Cc2cc(F)cc(F)c2)NC(=O)Cn2nc(C(F)(F)OCc3ccccn3)c3c2CCCC3)ccc1OCc1ccccn1 [Example 129, (S)-5-(2-(1-(2-(3-(difluoro(pyridin-2-ylmethoxy)methyl)-4,5,6,7-tetrahydro-1H-indazol-1-yl)acetamido)-2-(3,5-difluorophenyl)ethyl)pyridin-3-yl)-2-(pyridin-2-ylmethoxy)benzamide]	10200	0
COc1ccc(-c2cccnc2[C@H](Cc2ccccc2)NC(=O)Cn2nc(C(F)(F)F)c3c2CCCC3)c(C)c1 [Example 19, (S)—N-(1-(3-(4-methoxy-2-methylphenyl)pyridin-2-yl)-2-phenylethyl)-2-(3-(trifluoromethyl)-4,5,6,7-tetrahydro-1H-indazol-1-yl)acetamide]	14200	25
Cc1[nH]c2ccccc2c1CC(=O)N[C@@H](Cc1cc(F)cc(F)c1)c1ncccc1-c1cccc(C(N)=O)c1 [Example 497, (S)-3-(2-(2-(3,5-difluorophenyl)-1-(2-(2-methyl-1H-indol-3-yl)acetamido)ethyl)pyridin-3-yl)benzamide]	27100	67
NC(=O)c1cc(-c2cccnc2[C@H](Cc2cc(F)cc(F)c2)NC(=O)Cn2nc(C(F)F)cc2C2CC2)ccc1F [Example 317, (S)-5-(2-(1-(2-(5-cyclopropyl-3-(difluoromethyl)-1H-pyrazol-1-yl)acetamido)-2-(3,5-difluorophenyl)ethyl)pyridin-3-yl)-2-fluorobenzamide]	> 47600	41
COc1ccc(-c2cccnc2[C@H](Cc2cc(F)cc(F)c2)NC(=O)Cc2c[nH]c3ccc(NS(C)(=O)=O)cc23)cc1 [Example 35G, (S)—N-(2-(3,5-difluorophenyl)-1-(3-(4-methoxyphenyl)pyridin-2-yl)ethyl)-2-(5-(methylsulfonamido)-1H-indol-3-yl)acetamide]	22400	49
NCc1ccc2[nH]cc(CC(=O)N[C@@H](Cc3cc(F)cc(F)c3)c3ncccc3-c3cccc(C(N)=O)c3)c2c1 [Example 556, (S)-3-(2-(1-(2-(5-(aminomethyl)-1H-indol-3-yl)acetamido)-2-(3,5-difluorophenyl)ethyl)pyridin-3-yl)benzamide]	47800	83
NC(=O)c1cc(-c2cccnc2[C@H](Cc2cc(F)cc(F)c2)NC(=O)Cn2nc(C(F)F)c3c2C2CC(C3)C2)ccc1F [Example 87, (S)-5-(2-(2-(3,5-difluorophenyl)-1-(2-(4,5,6,7-tetrahydro-3-difluoromethyl-5,7-(methano)indazol-1-yl)acetamido)ethyl)pyridin-3-yl)-2-fluorobenzamide]	21600	101
CS(=O)(=O)c1cccc(-c2cccnc2[C@H](Cc2cc(F)cc(F)c2)NC(=O)Cn2nc(C(F)(F)F)c3c2CCCC3)c1 [Example 57B, (S)—N-(2-(3,5-difluorophenyl)-1-(3-(3-(methylsulfonyl)phenyl)pyridin-2-yl)ethyl)-2-(3-(trifluoromethyl)-4,5,6,7-tetrahydro-1H-indazol-1-yl)acetamide]	13300	98
CC(=O)N1Cc2c(C(F)(F)F)nn(CC(=O)N[C@@H](Cc3cc(F)cc(F)c3)c3ncccc3-c3ccc(F)c(C(N)=O)c3)c2C1 [Example 219, (S)-5-(2-(1-(2-(5-acetyl-3-(trifluoromethyl)-5,6-dihydropyrrolo[3,4-c]pyrazol-1(4H)-yl)acetamido)-2-(3,5-difluorophenyl)ethyl)pyridin-3-yl)-2-fluorobenzamide]	> 53200	1
CCNCc1cn(CC(=O)N[C@@H](Cc2cc(F)cc(F)c2)c2ncccc2-c2ccc(F)c(C(N)=O)c2)nc1C(F)(F)F [Example 314, (S)-5-(2-(2-(3,5-difluorophenyl)-1-(2-(4-((ethylamino)methyl)-3-(trifluoromethyl)-1H-pyrazol-1-yl)acetamido)ethyl)pyridin-3-yl)-2-fluorobenzamide]	23600	3
Cc1ccccc1-c1cccnc1[C@H](Cc1ccccc1)NC(=O)Cc1c[nH]c2ccc(O)cc12 [Example 14, (S)-2-(5-hydroxy-1H-indol-3-yl)-N-(2-phenyl-1-(3-o-tolylpyridin-2-yl)ethyl)acetamide]	25400	76
COC(=O)Nc1ccc(-c2cccnc2[C@H](Cc2cc(F)cc(F)c2)NC(=O)Cn2nc(C(F)F)c3c2C(F)(F)C2CC32)cc1 (stereo partly drawn) [Example 68B, (S)-methyl 4-(2-(1-(3-(difluoromethyl)-5,6-dihydro-4,5-(methano)-6,6-difluoro-cyclopenta[c]pyrazol-1(4H)-ylacetamido)-2-(3,5-difluorophenyl)ethyl)pyridin-3-yl)phenylcarbamate]	> 53200	28
O=C(Cc1c[nH]c2ccc(F)cc12)N[C@@H](Cc1cc(F)cc(F)c1)c1ncccc1-c1ccc(S(=O)(=O)N2CCOCC2)cc1 [Example 82, (S)—N-(2-(3,5-difluorophenyl)-1-(3-(4-(morpholinosulfonyl)phenyl)pyridin-2-yl)ethyl)-2-(5-fluoro-1H-indol-3-yl)acetamide]	19300	114
COc1ccc(-c2cccnc2C(Cc2cc(F)cc(F)c2)NC(=O)Cn2nc(C(F)(F)F)c3c2CCCC3)c(C)c1 (stereo not drawn) [Example 6, N-(2-(3,5-difluorophenyl)-1-(3-(4-methoxy-2-methylphenyl)pyridin-2-yl)ethyl)-2-(3-(trifluoromethyl)-4,5,6,7-tetrahydro-1H-indazol-1-yl)acetamide]	11400	45
O=C(Cn1nc(C(F)(F)F)cc1C1CC1)N[C@@H](Cc1cc(F)cc(F)c1)c1ncccc1-c1cnc2[nH]ccc2c1 [Example 61F, (S)—N-(1-(3-(1H-pyrrolo[2,3-b]pyridin-5-yl)pyridin-2-yl)-2-(3,5-difluorophenyl)ethyl)-2-(5-cyclopropyl-3-(trifluoromethyl)-1H-pyrazol-1-yl)acetamide]	17900	74
CC1(O)CCCc2c(C(F)F)nn(CC(=O)N[C@@H](Cc3cc(F)cc(F)c3)c3ncccc3-c3ccc(F)c(C(N)=O)c3)c21 (stereo partly drawn) [Example 349B, 5-(2-((1S)-1-(2-(3-(difluoromethyl)-7-hydroxy-7-methyl-4,5,6,7-tetrahydro-1H-indazol-1-yl)acetamido)-2-(3,5-difluorophenyl)ethyl)pyridin-3-yl)-2-fluorobenzamide]	40800	94
